Results taken from patent US6468983B2, “RNase L activators and antisense oligonucleotides effective to treat telomerase-expressing malignancies” (The Cleveland Clinic Foundation, priority 1997, dated 2002).

What was measured:
U251-MG cells = experiment: Cell viability assay, trypan blue dye exclusion, oligonucleotide in water every 12 hr; format: cell-based, human; details: 5 micromolar every 12 hr
Experimental: (§1) The cytotoxic effect of 2-5A activator antisense complexes on tumor cells was determined using the trypan blue dye exclusion assay. Tumor cells were seeded at 10^4 cells/well (0.1 ml) in 96-well flat-bottomed plates and incubated overnight at 37° C. Then, oligonucleotides (5 micromolar) in water were added into cells every 12 hr. On successive days the cells were harvested and 25% of the total was examined microscopically to determine the percentage of viable cells, another 25% was replated to continue treatment and the remaining 50% were used for the TRAP assay.
Knowing that hTR could be inactivated by the 2-5A antisense treatment, U251-MG cells were treated every 12 hours over a 14 day period with the same three oligonucleotides. 79% of the cells treated with spA4-anti-hTR were killed over the 14 day period with a significant (50%) reduction in cell viability after only 5 days. […] These experiments have since been repeated on a number of occasions with U251-MG cells to test new batches of oligonucleotides, always with the same results. […] Thus, after 14 days from the initial treatment with spA4-anti-hTR, the viability of U251-MG cells, as shown by Trypan-blue exclusion assays, was suppressed in all cases.

[1] = tested on: normal human astrocytes (PIN); experiment: Cell viability assay, trypan blue, same protocol on telomerase-negative normal astrocytes; format: cell-based; details: same protocol as the tumor cells, over the treatment period
Experimental: as §1

[2] = tested on: intracranial U373-MG tumors; experiment: Survival of mice with intracranial malignant glioma, intracranial injection; format: in vivo, Balb/c nude mice
Experimental: To establish murine models with intracranial tumors of U373-MG human malignant glioma cells, Balb/c nude mice were used. Mice (8-12 week-old male) were anesthetized using ketamine (90 mg/kg) and xylazine (10 mg/kg) and placed in a stereotaxic frame (Lab Standard w/18 Degree Earbars, Stoelting, Wood Dale, Ill.). Inoculation of 5×10^5 tumor cells (10 microliter of a tumor cell suspension of 5×10^7/ml in serum free DMEM [0.5 ml] and matrigel [0.5 ml]) was performed transcranially using a 27-gauge stainless-steel needle and microliter syringe (Perfectum, Popper & Sons, Inc., New Hyde Park, N.Y.). The needle insertion was in the skull 1 mm anterior and.2 mm lateral to the bregma and the depth of insertion was 4 mm from the skull (the caudate nucleus). The needle was left in place for 3 min and then withdrawn slowly over another minute. Two weeks after inoculation of tumor cells, mice were deeply anesthetized with ketamine/xylazine, and sacrificed by transcardiac perfusion with 4% formaldehyde. The brains were then sliced to include the injection site, and 12 μm sections were made for histological analysis. To determine the effect of 2-5A-anti-hTR on intracranial tumors, spA4-anti-hTR (3 nmol/10 microliter distilled water/3 microliter Lipofectamine, three times) was injected intracranially into the tumors via the same coordinates three weeks after inoculation of tumor cells (on Days 21, 23, and 25).

U373 cells = experiment: Viable cell count (trypan blue), daily oligonucleotide plus lipofectamine; format: cell-based, human
Experimental: Cells (10,000/well) were seeded on 96 well tissue culture dishes, and treated every 24 hours. A 10× concentrated mixture of oligonucleotides plus lipofectamine in water was prepared containing 5 micromolar oligonucleotide and 80 microgram per ml lipofectamine™ (Gibco/BRL) and incubated for 10 min at room temperature. Media was removed from the cells, 10 microliters of the oligonucleotide/lipofectamine mixture was added directly to the cultured cells followed by 90 microliters of media plus serum. The media was changed with oligonucleotide/lipofectamine treatments every 24 h. Cells were passaged when the control cells reached confluency, and viable cells were counted after staining with Trypan Blue (GibcoBRL). The numbers of cells treated only with lipofectamine were used as the control to calculate percentages of cell survival or viability.

[3] = U373, 0.5 micromolar daily plus lipofectamine, 3 days

Sp5′A2′p(5′A2p)3-[(Bu)p]2-5′GCG CGG GGA GCA AAA GCA C3′-3′T5′ (antisense GCGCGGGGAGCAAAAGCAC; 5'-thiophosphate 2-5A tetramer, butanediol linkers, 3'-3'T cap, chemistry not fully specified) [spA4-anti-hTR, 2-5A tetramer linked by butanediol linkers to 19-mer antisense against human telomerase RNA nucleotides 76 to 94]
cell death / effect on viability (in words) (U251-MG cells; 14 days): vast majority of cells can be killed
reduction in cell viability (U251-MG cells; after 5 days): 50%
cells killed (U251-MG cells; over the 14 day period): 79%
reduction in cell viability [1]: less than 5%
reduction in cell viability ([1]; listed as SpA4-anti-hTR): 2-3%
survival of mice ([2]; 9 weeks after inoculation of tumor cells, 3 nmol plus Lipofectamine intracranially on Days 21, 23, 25): 50%
mice survived ([2]; at 62 days post-tumor implantation): 50%
survival of mice (in words) ([2]; intracranial injection): Enhanced survival
increase in the anti-tumor cell effect by use of lipofectamine (U373 cells; 0.5 micromolar once a day with lipofectamine versus without): about 10 fold
effect on growth/viability (in words) (U373 cells; [3]): specifically suppressed growth
reduction in viability (U373 cells; [3]): about 60%
cell viability reduced to (U373 cells; U373, 0.5 micromolar daily plus lipofectamine, 7 days, two separate cultures): < 2%
reduction in viability (U373 cells; U373, 0.5 micromolar daily plus lipofectamine, 8 days): 90%
reduction of the dose required to block proliferation and survival of tumor cells using lipofectamine (U373 cells; with lipofectamine versus without): 10 fold
